Test results published in US8163771B2, “11 β-HSD1 modulators” (Exelixis, Inc., priority 2008, dated 2012).

These compounds were tested against T1, recombinant human 11 β-HSD1 (Homo sapiens, UniProt P28845) (assay: 11 β-HSD1 SPA Assay (Scintillation Proximity Assay)).
T1 construct: made in house; host or cells: E. coli
Assay type: biochemical
Outline: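 Scintillation proximity read-out of cortisol formed from 40 nM [3H]cortisone by purified recombinant human enzyme (30-100 nM, E. coli) with 1 mM NADPH, pH7.4, 2 hours at room temperature; beads with cortisol antibody and glycyrrhetinic acid stop the reaction, read next day. IC50 derived from inhibition normalised to background and maximal wells.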

T1 sequence (P28845 whole entry): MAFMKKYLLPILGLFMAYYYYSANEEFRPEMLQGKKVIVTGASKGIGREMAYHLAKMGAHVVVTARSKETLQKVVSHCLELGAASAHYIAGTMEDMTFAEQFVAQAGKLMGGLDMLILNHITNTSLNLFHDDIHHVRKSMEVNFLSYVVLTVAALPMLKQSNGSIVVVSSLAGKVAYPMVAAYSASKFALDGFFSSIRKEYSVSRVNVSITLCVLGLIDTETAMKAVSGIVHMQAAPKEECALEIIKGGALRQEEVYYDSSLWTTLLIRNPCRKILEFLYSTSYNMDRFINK

Compound | IC50 [nM]
CN(C)S(=O)(=O)c1cc(Cl)ccc1OC(C)(C)C(=O)N[C@H]1C[C@H]2CC[C@@H](C1)N2c1ccc(C(=O)NCC(F)(F)F)cn1 [Example 351, 6-[3-endo-({2-[4-chloro-2-(dimethylsulfamoyl)phenoxy]-2-methylpropanoyl}amino)-8-azabicyclo[3.2.1]oct-8-yl]-n-(2,2,2-trifluoroethyl)pyridine-3-carboxamide] | < 200
CC(C)(Oc1ccc(F)c(Cl)c1)C(=O)N[C@H]1C[C@H]2CC[C@@H](C1)N2c1ccc(S(C)(=O)=O)cn1 [Example 226, 2-[(3-chloro-4-fluorophenyl)oxy]-2-methyl-N-{8-[5-(methylsulfonyl)pyridin-2-yl]-8-azabicyclo[3.2.1]oct-3-endo-yl}propanamide] | < 200
CC(C)(Oc1c(Cl)cc(F)cc1Cl)C(=O)N[C@H]1C[C@H]2CC[C@@H](C1)N2c1ccc(S(C)(=O)=O)cc1 [Example 239, 2-[(2,6-dichloro-4-fluorophenyl)oxy]-2-methyl-N-{8-[4-(methylsulfonyl)phenyl]-8-azabicyclo[3.2.1]oct-3-endo-yl}propanamide] | < 200
CC(C)(Oc1cc(Cl)ccc1Cl)C(=O)N[C@H]1C[C@H]2CC[C@@H](C1)N2c1ccc(C(=O)NCC(F)(F)F)cn1 [Example 72, 6-[3-endo-({2-[(2,5-dichlorophenyl)oxy]-2-methylpropanoyl}amino)-8-azabicyclo[3.2.1]oct-8-yl]-N-(2,2,2-trifluoroethyl)pyridine-3-carboxamide] | < 200
CC(C)(O)CNC(=O)c1ccc(N2[C@@H]3CC[C@H]2C[C@@H](NC(=O)C(C)(C)Oc2cc(C(C)(C)O)c(Cl)cc2Cl)C3)nc1 [Example 336, 6-[3-endo-({2-[2,4-dichloro-5-(2-hydroxypropan-2-yl)phenoxy]-2-methylpropanoyl}amino)-8-azabicyclo[3.2.1]oct-8-yl]-N-(2-hydroxy-2-methylpropyl)pyridine-3-carboxamide] | < 200
CC(C)(Oc1cc(F)ccc1Cl)C(=O)N[C@H]1C[C@H]2CC[C@@H](C1)N2c1ccc(C(=O)NCC(F)(F)F)cn1 [Example 73, 6-[3-endo-({2-[(2-chloro-5-fluorophenyl)oxy]-2-methylpropanoyl}amino)-8-azabicyclo[3.2.1]oct-8-yl]-N-(2,2,2-trifluoroethyl)pyridine-3-carboxamide] | < 200
CC(C)(Oc1c(F)cc(F)cc1F)C(=O)N[C@H]1C[C@H]2CC[C@@H](C1)N2c1ccc(S(N)(=O)=O)cn1 [Example 259, N-{8-[5-(aminosulfonyl)pyridin-2-yl]-8-azabicyclo[3.2.1]oct-3-endo-yl}-2-methyl-2-[(2,4,6-trifluorophenyl)oxy]propanamide] | < 200
CC(C)(Oc1ccc(Cl)cc1C(F)F)C(=O)N[C@H]1C[C@H]2CC[C@@H](C1)N2c1ccc(C(=O)NCC(F)(F)F)cn1 [Example 364, 6-[3-endo-({2-[4-chloro-2-(difluoromethyl)phenoxy]-2-methylpropanoyl}amino)-8-azabicyclo[3.2.1]oct-8-yl]-N-(2,2,2-trifluoroethyl)pyridine-3-carboxamide] | < 200
CC(C)NC(=O)c1ccc(N2[C@@H]3CC[C@H]2C[C@@H](NC(=O)C(C)(C)Oc2ccc(F)c(F)c2)C3)nc1 [Example 85, 6-[3-endo-({2-[(3,4-difluorophenyl)oxy]-2-methylpropanoyl}amino)-8-azabicyclo[3.2.1]oct-8-yl]-N-(1-methylethyl)pyridine-3-carboxamide] | < 2000
N-(2,2-difluoroethyl)-6- [3-endo-({2-[2-fluoro-4- (2-hydroxypropan-2- yl)phenoxy]-2- methylpropanoyl}amino)- 8-azabicyclo[3.2.1]oct- 8-yl]pyridine-3- carboxamide [Example 305] | < 200
CC(C)(Oc1cc(C(C)(C)O)c(F)cc1F)C(=O)N[C@H]1C[C@H]2CC[C@@H](C1)N2c1ccc(C(=O)NCC(F)F)cn1 [Example 468, N-(2,2-difluoroethyl)-6-[3-endo-({2-[2,4-difluoro-5-(2-hydroxypropan-2-yl)phenoxy]-2-methylpropanoyl}amino)-8-azabicyclo[3.2.1]oct-8-yl]pyridine-3-carboxamide] | < 200
CC(C)(Oc1ccc(F)cc1Cl)C(=O)N[C@H]1C[C@H]2CC[C@@H](C1)N2c1ccc(S(C)(=O)=O)nc1 [Example 275, 2-[(2-chloro-4-fluorophenyl)oxy]-2-methyl-N-{8-[6-(methylsulfonyl)pyridin-3-yl]-8-azabicyclo[3.2.1]oct-3-endo-yl}propanamide] | < 200
CC(C)(Oc1cc(CC(=O)O)c(Cl)cc1Cl)C(=O)N[C@H]1C[C@H]2CC[C@@H](C1)N2c1ccc(C(=O)NCC(F)F)cn1 [Example 460, [2,4-dichloro-5-({1-[(8-{5-[(2,2-difluoroethyl)carbamoyl]pyridin-2-yl}-8-azabicyclo[3.2.1]oct-3-endo-yl)amino]-2-methyl-1-oxopropan-2-yl}oxy)phenyl]acetic acid] | < 200
CC(C)(Oc1ccc(Cl)cc1N1CCOCC1)C(=O)N[C@H]1C[C@H]2CC[C@@H](C1)N2c1ccc(C(=O)NCC(F)(F)F)cn1 [Example 359, 6-[3-endo-({2-[4-chloro-2-(morpholin-4-yl)phenoxy]-2-methylpropanoyl}amino)-8-azabicyclo[3.2.1]oct-8-yl]-N-(2,2,2-trifluoroethyl)pyridine-3-carboxamide] | < 200
C[C@H](CO)NC(=O)c1ccc(N2C3CCC2CC(NC(=O)C(C)(C)Oc2ccc(Cl)cc2Cl)C3)nc1 (stereo partly drawn) [Example 398, 6-(3-endo-{[2-(2,4-dichlorophenoxy)-2-methylpropanoyl]amino}-8-azabicyclo[3.2.1]oct-8-yl)-N-[(2R)-1-hydroxypropan-2-yl]pyridine-3-carboxamide] | < 200
CC(C)(Oc1ccc(Cl)c(F)c1)C(=O)N[C@H]1C[C@H]2CC[C@@H](C1)N2c1ccc(S(C)(=O)=O)cn1 [Example 240, 2-[(4-chloro-3-fluorophenyl)oxy]-2-methyl-N-{8-[5-(methylsulfonyl)pyridin-2-yl]-8-azabicyclo[3.2.1]oct-3-endo-yl}propanamide] | < 200
CC(C)(Oc1ccc(Cl)cc1OCCn1ccnc1)C(=O)N[C@H]1C[C@H]2CC[C@@H](C1)N2c1ccc(C(=O)NCC(F)(F)F)cn1 [Example 387, 6-{3-endo-[(2-{4-chloro-2-[2-(1H-imidazol-1-yl)ethoxy]phenoxy}-2-methylpropanoyl)amino]-8-azabicyclo[3.2.1]oct-8-yl}-N-(2,2,2-trifluoroethyl)pyridine-3-carboxamide] | < 2000
CC(C)(O)CNC(=O)c1ccc(N2[C@@H]3CC[C@H]2C[C@@H](NC(=O)C(C)(C)Oc2ccc(Cl)cc2OC(F)(F)F)C3)nc1 [Example 438, 6-[3-endo-({2-[4-chloro-2-(trifluoromethoxy)phenoxy]-2-methylpropanoyl}amino)-8-azabicyclo[3.2.1]oct-8-yl]-N-(2-hydroxy-2-methylpropyl)pyridine-3-carboxamide] | < 200
CC(C)(Oc1ccc(F)c(C(F)(F)F)c1)C(=O)N[C@H]1C[C@H]2CC[C@@H](C1)N2c1ccc(S(C)(=O)=O)cn1 [Example 272, 2-{[4-fluoro-3-(trifluoromethyl)phenyl]oxy}-2-methyl-N-{8-[5-(methylsulfonyl)pyridin-2-yl]-8-azabicyclo[3.2.1]oct-3-endo-yl}propanamide] | < 2000
